Data on 59 molecules can be found in PubChem BioAssay (NCI).

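Growth conditions: 96-well plates. Treatment: test compound, 48 hours, 5 concentrations. Analysis: linear interpolation between bracketing concentrations; unreached endpoints set to highest concentration. GI50 marks 50% less growth. TGI marks complete inhibition of growth.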

For one assay, the system named is OVCAR-5 ovarian. In words: NCI-60 cell line screen, 48 h.
For a further assay, the system named is CAKI-1 renal. The assay can be described thus: NCI-60 cell line screen, 48 h.

Turning to `COc1nn(Cc2ccccc2F)c2ccc([N+](=O)[O-])cc12`, the TGI in the assay with OVCAR-5 ovarian and in the assay with CAKI-1 renal was above 100 µM in each case.
Regarding `Cc1cccc(-c2cc(=O)c3ccc(C)nc3[nH]2)c1`, the TGI in the assay on OVCAR-5 ovarian and in the assay on CAKI-1 renal was above 100 µM throughout.
As to `CN(C)c1ccc(/C=C/c2sc3ccc4ccccc4c3[n+]2C)cc1`, in the assay with CAKI-1 renal, the GI50 was 0.211 µM and the TGI worked out at 0.627 µM.
`N=c1c2c3n(c4c(=O)n(-c5ccccc5)c(=S)n(c(=O)n1-c1ccccc1)c24)CCCCC3`: the TGI in the assay on OVCAR-5 ovarian and with CAKI-1 renal was above 100 µM each time.
Take `COC(=O)C1=NN2c3ccccc3C(=O)OCCC2C1` (configuration not stated): the TGI with OVCAR-5 ovarian and in the assay with CAKI-1 renal was above 100 µM each time.
Take `COc1ccc(/C=C2\CN(C)CC3=C2OC(N)=C(C#N)C3c2ccc(OC)cc2)cc1` (configuration not stated): the TGI with OVCAR-5 ovarian and in the assay with CAKI-1 renal was above 100 µM in each case.
Turning to `CCC(=O)OCc1ccc2oc(=O)c(C(=O)Oc3cncc(Cl)c3)cc2c1`, the TGI with OVCAR-5 ovarian and with CAKI-1 renal was above 100 µM throughout.
Take `OCCSCCCSCCO`: the TGI in the assay with OVCAR-5 ovarian is above 100 µM.
For `C=C(C)CCC1CCCCC(CN(C)C)C1=O` (configuration not stated), the TGI in the assay with OVCAR-5 ovarian and with CAKI-1 renal was above 100 µM each time.
On to `C/C(Cl)=N\OC(=O)Nc1ccccc1C(F)(F)F`, for which the TGI in the assay on OVCAR-5 ovarian and with CAKI-1 renal was above 100 µM in each case.
Consider `Cc1cc(C)c2c(n1)S(=O)(=O)N(CCCN1CCN(c3cccc(C(F)(F)F)c3)CC1)/C(=C(\O)c1ccccc1)C2=O`, for which the TGI with OVCAR-5 ovarian amounted to 39 µM; with CAKI-1 renal, 11.9 µM.
For the molecule `COC(=O)c1ccc2n1C1CC3CC(CC2C3)C1`, the TGI in the assay with OVCAR-5 ovarian and in the assay with CAKI-1 renal was above 100 µM each time.
With `CC(C)CCCC(C)[C@H]1CC[C@H]2[C@@H]3CC[C@H]4C[C@@H](CCC=C(c5cc(Cl)c(O)c(C(=O)OC(C)(C)C)c5)c5cc(Cl)c(O)c(C(=O)OC(C)(C)C)c5)CC[C@]4(C)[C@H]3CC[C@]12C` (some centres not stated), the TGI with OVCAR-5 ovarian and in the assay on CAKI-1 renal was above 50 µM throughout.
For the molecule `O=C(O)c1c(-c2c3ccc(=O)cc-3oc3cc(O)ccc23)cc2ccccc2c1-c1ccccc1`, the TGI in the assay on OVCAR-5 ovarian and with CAKI-1 renal was above 100 µM in each case.
Consider `COC1(OC)N=C(N)C2(C#N)C(C)CC(=O)N(N(C)C)C12C#N` (configuration not stated), for which the TGI in the assay on OVCAR-5 ovarian and with CAKI-1 renal was above 100 µM each time.
Consider `NC(=O)c1n[nH]n(-c2ccccc2)c1=O`, for which the TGI in the assay with OVCAR-5 ovarian and in the assay on CAKI-1 renal was above 100 µM throughout.
`O=C(O)c1c(CC(Cc2ccc3c(c2)CCCC3)C(=O)O)ccc2c1CCCC2` (configuration not stated): the TGI in the assay with OVCAR-5 ovarian and with CAKI-1 renal was above 100 µM each time.
Consider `CCOC(=O)CCC(C(=O)OCC)n1nc2ccc(Nc3c(C)[n+]([O-])c4cc(Cl)ccc4[n+]3[O-])cc2n1` (configuration not stated), for which the TGI with OVCAR-5 ovarian and in the assay on CAKI-1 renal was above 100 µM in each case.
With `OC(c1cccs1)c1cc2ccccc2s1` (configuration not stated), the TGI with OVCAR-5 ovarian and in the assay with CAKI-1 renal was above 10 µM throughout.
`Cc1ccc(/C=C2\NC(=S)N(CN3CCOCC3)C2=O)cc1` came in with a TGI with OVCAR-5 ovarian above 100 µM.
Turning to `Cc1cc2c(cc1O)CC[C@@H]1[C@@H]2CC[C@]2(C)[C@@H](O)CC[C@@H]12`, the TGI with OVCAR-5 ovarian amounted to 71.9 µM; in the assay on CAKI-1 renal it was 59.6 µM.
As to `CCN1/C(=C/c2ccc3ccccc3[n+]2CC)C=Cc2ccccc21`, the TGI in the assay on OVCAR-5 ovarian was found to be 24.4 µM; in the assay with CAKI-1 renal it was 56.8 µM.
On to `OCCCSc1ccccc1SCCCO`, for which, in the assay with OVCAR-5 ovarian, the TGI is above 100 µM.
As for `c1ccc2c(c1)CCc1c-2n(CCN2CCCCC2)c2ccccc12`, the TGI in the assay on OVCAR-5 ovarian came out at 30.2 µM; in the assay with CAKI-1 renal it was 52.3 µM.
Turning to `O=C(CCCCCCCCC(=O)NN1C(=O)/C(=C\c2ccc(O)c(O)c2)SC1c1c(O)ccc2ccccc12)NN1C(=O)C(=Cc2ccc(O)c(O)c2)SC1c1c(O)ccc2ccccc12` (configuration not stated), the TGI in the assay on OVCAR-5 ovarian and in the assay with CAKI-1 renal was above 100 µM throughout.
With `O=C1CN(c2ccc(Cl)cc2)C(=O)CN1CCN1CC(=O)N(c2ccc(Cl)cc2)CC1=O`, the TGI in the assay on OVCAR-5 ovarian and in the assay with CAKI-1 renal was above 100 µM in each case.
With `FC(F)(F)c1ccc2c(c1)nc(Cc1ccccc1)n2C[C@@H]1CCCN2CCCCC12` (some centres not stated), the TGI in the assay with OVCAR-5 ovarian came out at 31.7 µM; in the assay with CAKI-1 renal it was 31.1 µM.
With `COC(=O)C(NC(=O)CNC(=O)CSc1nnc(COc2ccc(Cl)cc2)n1-c1ccccc1)C(C)C` (configuration not stated), the TGI was determined as 40.1 µM in the assay on OVCAR-5 ovarian and 28.2 µM in the assay with CAKI-1 renal.
In the case of `OC1C(O)C(O)C(O)C(O)C1O` (configuration not stated), the TGI in the assay on OVCAR-5 ovarian is above 1000 µM.
Consider `CC(C)(C)c1cc(-c2ccc(-c3cc(C(C)(C)C)c(O)c(C(C)(C)C)c3)cc2)cc(C(C)(C)C)c1O`, for which the TGI in the assay with OVCAR-5 ovarian and in the assay on CAKI-1 renal was above 100 µM throughout.
`N#Cc1c(=O)c2cc([N+](=O)[O-])ccc2n2c1[nH]c1ccccc12`: the TGI was above 100 µM in the assay with OVCAR-5 ovarian and above 92 µM in the assay on CAKI-1 renal.
On to `Cn1c(-c2csc(-c3ccc(Cl)cc3)n2)n[nH]c1=S`, for which the TGI is above 100 µM in the assay on OVCAR-5 ovarian and 56.4 µM in the assay with CAKI-1 renal.
As for `CC1(C)OCC2OC3([C@H](O)CCO)OC(C)(C)OC3C2O1` (some centres not stated), the TGI in the assay on OVCAR-5 ovarian and in the assay with CAKI-1 renal was above 100 µM throughout.
As for `C=CCN1C(=O)/C(=C/c2ccc(C)cc2)N=C1SC/C=C/C`, the TGI in the assay with OVCAR-5 ovarian and in the assay with CAKI-1 renal was above 100 µM each time.
As to `Clc1ccc(OCc2nnc3sc(-c4ccc(-c5ccc(Cl)cc5Cl)o4)nn23)c(Cl)c1`, the TGI with OVCAR-5 ovarian is 49.1 µM; in the assay with CAKI-1 renal, 86.2 µM.
Turning to `CCCCCCOc1ccc(NC2=C(Cl)C(=O)c3cccnc3C2=O)cc1`, the TGI with OVCAR-5 ovarian was 5.01 µM.
As to `Cc1cccc2sc(NC(=O)c3cc([N+](=O)[O-])ccc3Cl)nc12`, the TGI in the assay on OVCAR-5 ovarian is 28.4 µM; with CAKI-1 renal it was above 44.8 µM.
For `N#CC1C(=O)Nc2sc(C(=O)c3ccc(Br)cc3)c(N)c2C12CCCCC2` (configuration not stated), the TGI with OVCAR-5 ovarian and with CAKI-1 renal was above 100 µM throughout.
On to `Oc1[nH]c2ccccc2c1N=NC1=NCCCCN1`, for which the TGI in the assay with OVCAR-5 ovarian and with CAKI-1 renal was above 100 µM each time.
For the molecule `O=C1CC(Br)c2c(Cl)sc(Cl)c21` (configuration not stated), the TGI in the assay on OVCAR-5 ovarian was 36.3 µM; in the assay with CAKI-1 renal it was 9.79 µM.
Consider `c1ccc2nc3[nH]c4ccccc4c3cc2c1`, for which the TGI in the assay on OVCAR-5 ovarian came out at 20.4 µM; in the assay on CAKI-1 renal, 3.69 µM.
The like results for `CO/N=C1\CCC2(O)C3Cc4ccc(O)c5c4C2(CCN3CC2CC2)[C@H]1O5` (some centres not stated) were, in that order, above 100 µM and above 100 µM.
`CC(=O)Oc1ccn2nc(C)c(Br)c2c1Br`: the TGI with CAKI-1 renal is 21.7 µM.
With `Oc1ccc(-c2nc3cc(C(F)(F)F)ccc3n2CC2CCCN3CCCCC23)cc1` (configuration not stated), the TGI in the assay with OVCAR-5 ovarian came to 67 µM; in the assay with CAKI-1 renal it was 38.8 µM.
In the case of `CC1=C/C(=N/N2C(=O)/C(=C/c3ccc(Cl)cc3)N=C2c2ccccc2)CC(C)(C)C1`, the TGI with OVCAR-5 ovarian and with CAKI-1 renal was above 100 µM throughout.
On to `O=C1Oc2ccccc2C(=O)/C1=C/N1C(=O)/C(=C/c2ccc([N+](=O)[O-])cc2)SC1=S`, for which the TGI is above 100 µM with OVCAR-5 ovarian and 51.3 µM in the assay with CAKI-1 renal.
Turning to `COc1cccc(NCC(=O)Nn2c(-c3ccccc3)nc3ccccc3c2=O)c1`, in the assay on OVCAR-5 ovarian, the TGI is above 100 µM.
Regarding `COC(=O)NCCc1[nH]nc2c1C(=O)C=C(OC)C2=O`, the TGI in the assay on OVCAR-5 ovarian was 37.8 µM; in the assay with CAKI-1 renal, 45.5 µM.
On to `O=[N+]([O-])CC(SCc1ccccc1)c1ccc2c(c1)OCO2` (configuration not stated), for which the TGI in the assay on OVCAR-5 ovarian worked out at 30.2 µM; in the assay with CAKI-1 renal, 28.6 µM.
`O=c1nc2n(cc1/C=C\Br)C1CC(O)C(CO2)O1` (configuration not stated): the TGI with OVCAR-5 ovarian and in the assay with CAKI-1 renal was above 100 µM each time.
Turning to `NC1CC2C3CCC2C1C3=O` (configuration not stated), the TGI in the assay on OVCAR-5 ovarian and in the assay on CAKI-1 renal was above 100 µM in each case.
On to `O=c1c2cc(Br)ccc2oc2nc3n(c(=O)c12)CCCS3`, for which the TGI in the assay with OVCAR-5 ovarian and in the assay on CAKI-1 renal was above 100 µM in each case.
The molecule `N#CCCC(CC#N)N1CCN(CCO)CC1` (configuration not stated) yielded a TGI in the assay on OVCAR-5 ovarian above 100 µM.
In the case of `O=[N+]([O-])c1ccc(Cl)cc1C1ON=C(c2ccccc2)N1C12CC3CC(CC(C3)C1)C2` (configuration not stated), the TGI in the assay with OVCAR-5 ovarian and with CAKI-1 renal was above 100 µM in each case.
For `Cc1nc2c(nc1C)-c1c(c3c(n1Cc1ccccc1)C(=O)CCC3)C(=O)C2=O`, the TGI is above 100 µM in the assay on OVCAR-5 ovarian and 5.32 µM in the assay on CAKI-1 renal.
On to `CN1CCN(CC(=O)Nc2ccc3ncnc(Nc4ccc(Oc5cccc(C(F)(F)F)c5)c(Cl)c4)c3c2)CC1`, for which the GI50 with OVCAR-5 ovarian was 1.58 µM; in the assay with CAKI-1 renal it was 1.24 µM. For the same molecule, the TGI is 2.98 µM in the assay on OVCAR-5 ovarian and 2.49 µM in the assay on CAKI-1 renal.
With `N[C@@H]1c2c(Br)sc(Br)c2[C@H](O)[C@@H]1O`, the TGI in the assay with OVCAR-5 ovarian and in the assay on CAKI-1 renal was above 100 µM each time.
With `CCCCCCCCCCCCCCCCCCNc1ccn(C2OC(COP(=O)(O)O)C(O)C2O)c(=O)n1` (configuration not stated), the TGI in the assay with OVCAR-5 ovarian and in the assay on CAKI-1 renal was above 100 µM each time.
As for `Cc1ccc(C(=O)CC(Cl)=C(Cl)Cl)cc1`, the TGI with OVCAR-5 ovarian and in the assay on CAKI-1 renal was above 100 µM throughout.
